Measured values as given in patent US10597370B2, “2-(benzothiazol-2-yl)-2-cyano-acetamide derivatives and their use as endothelial lipase inhibitors” (BRISTOL-MYERS SQUIBB COMPANY, priority 2016, dated 2020).
pIC50: −log10 of the molar value.

molecular target: T1, Endothelial lipase (EL) (Homo sapiens, UniProt Q9Y5X9); assay: Endothelial lipase (EL) enzymatic assay with fluorescent substrate A10070 in DMPG vesicles; type: biochemical; conditions: conditioned media from HT-1080 cells overexpressing endogenous EL; 20 min preincubation at 37° C.
T1 construct: transformed by RAGE technology (Athersys) to overexpress endogenous EL; endogenous in cells; the conditioned medium served as the enzyme source
T1 sequence (Q9Y5X9 21-500): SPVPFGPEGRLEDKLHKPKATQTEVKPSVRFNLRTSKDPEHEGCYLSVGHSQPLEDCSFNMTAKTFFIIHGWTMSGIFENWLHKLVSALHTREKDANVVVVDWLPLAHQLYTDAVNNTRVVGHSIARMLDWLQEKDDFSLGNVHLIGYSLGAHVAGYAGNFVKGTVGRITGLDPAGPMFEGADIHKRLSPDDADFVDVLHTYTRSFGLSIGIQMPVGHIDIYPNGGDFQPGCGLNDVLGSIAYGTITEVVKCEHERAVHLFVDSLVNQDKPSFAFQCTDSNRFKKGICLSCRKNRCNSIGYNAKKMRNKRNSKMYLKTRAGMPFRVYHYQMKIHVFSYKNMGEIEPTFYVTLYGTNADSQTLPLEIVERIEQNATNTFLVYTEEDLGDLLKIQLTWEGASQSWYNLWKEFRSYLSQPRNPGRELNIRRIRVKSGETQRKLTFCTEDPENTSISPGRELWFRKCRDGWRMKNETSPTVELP
Procedure: Endothelial lipase activity was measured using a fluorescent substrate, A10070, (Invitrogen, CA) doped into an artificial vesicle containing DMPG (Avanti Polar Lipids) as the excipient. Vesicles were prepared by combining 285 μL of 1 mM DMPG in a 1:1 mixture of MeOH and CHCl3 with 15 μL of 1 mM A10070 in a 1:1 mixture of MeOH and CHCl3. The mixture was dried under nitrogen and resuspended in 150 μL of 50 mM HEPES pH 8.0 buffer containing 100 mM NaCl and 0.2 mM EDTA. The sample was allowed to sit at rt for 15 min and then was sonicated 3×4 mins on ice with a Branson Sonicator using duty cycle 1. This preparation provides vesicles with a mole fraction of 0.05 for the FRET substrate.
The enzymatic assay was measured using white, opaque 96-well half area plates. Each well contained 60 μL of assay buffer (50 mM HEPES pH 8.0, 50 mM NaCl and 1 mM CaCl2) and 2 ul of a DMSO solution containing compound of interest. Conditioned media obtained from HT-1080 cells, which were transformed by RAGE technology (Athersys) to overexpress endogenous EL, was added and the reaction was allowed to incubate for 20 min at 37° C. with gentle agitation. The reaction was started by the addition of 20 μL of a 1:4 dilution of vesicles. The final total reaction volume was 100 μL. The reaction rates were measured on a Gemini plate reader with an excitation wavelength of 488 nm and an emission of 530 nm. Readings were taken every 20 seconds for 10 min with agitation between each reading. The slope of the linear portion of the readout was used to calculate the rate of the reaction.

Row | pIC50 | Compound
1 | 5.50 | CN1CCN(C(=O)c2ccc(-c3ccc4nc(C(C#N)C(=O)NCC(=O)NC5CCC5)sc4c3)cc2)CC1 (stereo not drawn) [Example 19, 2-cyano-N-[(cyclobutyl-carbamoyl)methyl]-2-{6-[4-(4-methyl-piperazine-1-carbonyl)phenyl]-1,3-benzothiazol-2-yl} acetamide]
2 | 6.89 | CN1CCN(C(=O)c2ccc(-c3ccc4nc(C(C#N)C(=O)NCC(=O)NC5CC5)sc4c3)cc2)CC1 (stereo not drawn) [Example 20, 2-cyano-N-[(cyclopropyl-carbamoyl)methyl]-2-{6-[4-(4-methyl-piperazine-1-carbonyl)phenyl]-1,3-benzothiazol-2-yl} acetamide]
3 | 7.51 | N#CC(C(=O)NCC(=O)NC1CC1)c1nc2ncc(-c3ccc(C(N)=O)cc3)cc2s1 (stereo not drawn) [Example 24, 4-{2-[cyano({[(cyclopropyl-carbamoyl)methyl]carbamoyl})methyl]-[1,3]thiazolo[4,5-b]pyridin-6-yl}benzamide]
4 | 6.76 | N#CC(C(=O)NCC(=O)NC1CC1)c1nc2ccc(-c3ccc(F)nc3)cc2s1 (stereo not drawn) [Example 16, 2-cyano-N-[(cyclopropyl-carbamoyl)methyl]-2-[6-(6-fluoropyridin-3-yl)-1,3-benzothiazol-2-yl] acetamide]
5 | 7.89 | N#CC(C(=O)NCC(=O)NC1CC1)c1nc2cc(-c3ccccc3)c(F)cc2s1 (stereo not drawn) [Example 27, 2-cyano-N-[(cyclopropyl-carbamoyl)methyl]-2-(6-fluoro-5-phenyl-1,3-benzothiazol-2-yl)acetamide]
6 | 7.66 | N#CC(C(=O)NCC(=O)NC1CC1)c1nc2ncc(-c3cccc(C(=O)N4CCOCC4)c3)cc2s1 (stereo not drawn) [Example 22, 2-cyano-N-[(cyclopropyl-carbamoyl)methyl]-2-{6-[3-(morpholine-4-carbonyl)phenyl]-[1,3]thiazolo[4,5-b]pyridin-2-yl}acetamide]
7 | 9.00 | CN1CCN(C(=O)c2cccc(-c3cc4nc(C(C#N)C(=O)NCC(=O)NC5CC5)sc4cc3F)c2)CC1 (stereo not drawn) [Example 29, 2-cyano-N-[(cyclopropyl-carbamoyl)methyl]-2-{6-fluoro-5-[3-(4-methylpiperazine-1-carbonyl)phenyl]-1,3-benzothiazol-2-yl}acetamide]
8 | 7.48 | CN1CCN(C(=O)c2ccc(-c3cnc4nc(C(C#N)C(=O)NCC(=O)NC5CC5)sc4c3)cc2)CC1 (stereo not drawn) [Example 23, 2-cyano-N-[(cyclopropyl-carbamoyl)methyl]-2-{6-[4-(4-methylpiperazine-1-carbonyl)phenyl]-[1,3]thiazolo[4,5-6]pyridin-2-yl}acetamide]
9 | 7.40 | COCCNC(=O)c1ccc(-c2cnc3nc(C(C#N)C(=O)NCC(=O)NC4CC4)sc3c2)cc1 (stereo not drawn) [Example 25, 4-{2-[cyano({[(cyclopropyl-carbamoyl)methyl]carbamoyl})methyl]-[1,3]thiazolo[4,5-b]pyridin-6-yl}-N-(2-methoxyethyl) benzamide]
10 | 7.68 | N#CC(C(=O)NCC(=O)NC1CC1)c1nc2cc(-c3cccc(C(N)=O)c3)c(F)cc2s1 (stereo not drawn) [Example 26, 3-{2-[cyano({[(cyclopropylcarbamoyl)methyl]carbamoyl})methyl]-6-fluoro-1,3-benzothiazol-5-yl}benzamide]
11 | 7.17 | N#CC(C(=O)NCC(=O)NC1COC1)c1nc2ccc(-c3ccc(F)nc3)cc2s1 (stereo not drawn) [Example 17, 2-cyano-2-[6-(6-fluoropyridin-3-yl)-1,3-benzothiazol-2-yl]-N-{[(oxetan-3-yl)carbamoyl]methyl} acetamide]
12 | 5.88 | N#CC(C(=O)NCC(=O)N1CCCC1)c1nc2ccc(-c3ccccc3)cc2s1 (stereo not drawn) [Example 18, 2-cyano-N-[2-oxo-2-(pyrrolidin-1-yl)ethyl]-2-(6-pheny1-1,3-benzothiazol-2-yl)acetamide]

The remaining lines, values behind:

Row | Compound | pIC50
13 | COCCNC(=O)c1ccc(-c2ccc3nc(C(C#N)C(=O)NCC(=O)NC4CC4)sc3c2)cc1 (stereo not drawn) [Example 12, 4-{2-[cyano ({[(cyclopropyl-carbamoyl)methyl]carbamoyl})methyl]-1,3-benzothiazol-6-yl}-N-(2-methoxyethyl) benzamide] | 7.80
14 | N#CC(C(=O)NCC(=O)NC1CC1)c1nc2ccc(-c3cccc(C(=O)N4CCCCC4)c3)cc2s1 (stereo not drawn) [Example 5, 2-cyano-N-[(cyclopropyl-carbamoyl)methyl]-2-{6-[3-(piperidine-1-carbonyl)phenyl]-1,3-benzothiazol-2-yl}acetamide] | 7.80
15 | N#CC(C(=O)NCC(=O)NC1CC1)c1nc2ccc(-c3ccc(C(=O)N4CCC4)cc3)cc2s1 (stereo not drawn) [Example 7, 2-{6-[4-(azetidine-1-carbonyl)phenyl]-1,3-benzothiazol-2-yl}-2-cyano-N-[(cyclopropyl-carbamoyl)methyl] acetamide] | 7.82
16 | CN(C)C(=O)c1ccc(-c2ccc3nc(C(C#N)C(=O)NCC(=O)NC4CC4)sc3c2)cc1F (stereo not drawn) [Example 3, 4-{2-[cyano ({[(cyclopropyl-carbamoyl)methyl]carbamoyl})methyl]-1,3-benzothiazol-6-yl}-2-fluoro-N,N-dimethyl-benzamide] | 6.62
17 | N#CC(C(=O)NCC(=O)NC1CC1)c1nc2ccc(-c3cccc(C(N)=O)c3)cc2s1 (stereo not drawn) [Example 9, 3-{2-[cyano ({[(cyclopropyl-carbamoyl)methyl]carbamoyl})methyl]-1,3-benzothiazol-6-yl} benzamide] | 6.40
18 | N#CC(C(=O)NCC(=O)NC1CC1)c1nc2ccc(-c3ccc4c(c3)C(=O)NC4)cc2s1 (stereo not drawn) [Example 6, 2-cyano-N-[(cyclopropyl-carbamoyl)methyl]-2-[6-(3-oxo-2,3-dihydro-1H-isoindol-5-yl)-1,3-benzothiazol-2-yl] acetamide] | 6.59
19 | N#CC(C(=O)NCC(=O)NC1CC1)c1nc2ccc(-c3ccc(C(=O)N4CCOCC4)cc3)cc2s1 (stereo not drawn) [Example 14, 2-cyano-N-(2-(cyclopropylamino)-2-oxoethyl)-2-(6-(4-(morpholine-4-carbonyl)phenyl)benzo[d]thiazol-2-yl)acetamide] | 7.21
20 | N#CC(C(=O)NCC(=O)NC1CC1)c1nc2ccc(-c3ccc(C(=O)N4CCCCC4)cc3)cc2s1 (stereo not drawn) [Example 13, 2-cyano-N-[(cyclopropyl-carbamoyl)methyl]-2-{6-[4-(piperidine-1-carbonyl)phenyl]-1,3-benzothiazol-2-yl} acetamide] | 7.96
21 | N#CC(C(=O)NCC(=O)NC1CC1)c1nc2ccc(-c3ccccc3)cc2s1 (stereo not drawn) [Example 1, 2-cyano-N-(2-(cyclopropylamino)-2-oxoethyl)-2-(6-phenylbenzo[d]thiazol-2-yl)acetamide] | 7.89
22 | N#CC(C(=O)NCC(=O)NC1CC1)c1nc2ccc(-c3ccc(NC(=O)OCc4ccccc4)cc3)cc2s1 (stereo not drawn) [Example 15, benzyl N-(4-{2-[cyano ({[(cyclopropyl-carbamoyl)methyl]carbamoyl})methyl]-1,3-benzothiazol-6-yl}phenyl) carbamate] | 8.85
23 | Cn1ccc(-c2ccc3nc(C(C#N)C(=O)NCC(=O)NC4CC4)sc3c2)cc1=O (stereo not drawn) [Example 4, 2-cyano-N-[(cyclopropyl-carbamoyl)methyl]-2-[6-(1-methyl-2-oxo-1,2-dihydropyridin-4-yl)-1,3-benzothiazol-2-yl] acetamide] | < 5.00
24 | N#CC(C(=O)NCC(=O)NC1CC1)c1nc2ccc(-c3ccc(C(N)=O)cc3)cc2s1 (stereo not drawn) [Example 11, 4-{2-[cyano ({[(cyclopropyl-carbamoyl)methyl]carbamoyl})methyl]-1,3-benzothiazol-6-yl} benzamide] | 7.59
